{"source": "patent US20230218717A1", "about": "“Administration of CEBP-Beta Antagonist and Methods of Use” (Sapience Therapeutics, Inc., priority 2020, published 2023)", "molecules": {"B1": {"name": "ATF5: recombinant ATF5, activating transcription factor 5, binding partner of C/EBPβ (protein)", "chain": "MSLLATLGLELDRALLPASGLGWLVDYGKLPPAPAPLAPYEVLGGALEGGLPVGGEPLAGDGFSDWMTERVDFTALLPLEPPLPPGTLPQPSPTPPDLEAMASLLKKELEQMEDFFLDAPPLPPPSPPPLPPPPLPPAPSLPLSLPSFDLPQPPVLDTLDLLAIYCRNEAGQEEVGMPPLPPPQQPPPPSPPQPSRLAPYPHPATTRGDRKQKKRDQNKSAALRYRQRKRAEGEALEGECQGLEARNRELKERAESVEREIQYVKDLLIEVYKARSQRTRSC"}}, "key": {"[1]": {"tested_on": "HL-60 promyelocytic leukemia cells", "experiment": "Cytotoxicity in HL-60 cells", "text": "(§1) We hypothesized that modifications designed to enhance electrostatic interactions between the peptide and C/EBPβ would increase potency. A panel of 46 rationally-designed peptides probing the molecular packing of non-leucine amino acids of the peptide antagonist with that of the C/EBPβ bZIP domain were synthesized and screened for cytotoxic activity."}, "[2]": {"biological_target": "C/EBPβ (plate-bound, competitive ELISA)", "sequence (P17676 whole entry)": "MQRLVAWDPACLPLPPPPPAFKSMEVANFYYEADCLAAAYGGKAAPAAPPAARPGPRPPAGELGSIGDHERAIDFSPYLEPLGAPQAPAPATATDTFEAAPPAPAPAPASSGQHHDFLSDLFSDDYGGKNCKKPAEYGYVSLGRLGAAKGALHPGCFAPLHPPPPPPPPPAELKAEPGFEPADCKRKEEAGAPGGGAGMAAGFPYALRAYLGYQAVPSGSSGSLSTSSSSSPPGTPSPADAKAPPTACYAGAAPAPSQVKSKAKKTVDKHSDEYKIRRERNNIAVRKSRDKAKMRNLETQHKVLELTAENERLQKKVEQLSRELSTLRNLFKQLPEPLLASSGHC", "experiment": "ELISA: 3.6 ng plate-bound C/EBPβ, ATF5 in solution"}, "[3]": {"experiment": "Cytotoxicity in HL-60 cells", "text": "as §1"}, "C/EBPβ": {"biological_target": "C/EBPβ (Homo sapiens, UniProt P17676)", "sequence (P17676 whole entry, species assumed)": "as the sequence (P17676 whole entry) above", "experiment": "ELISA, ATF5 binding to plate-bound C/EBPβ", "settings": "3.6 ng C/EBPβ plate-bound", "procedure": "C/EBPβ (3.6 ng/well) was immobilized to a 384-well plate (Nunc MaxiSorp, ThermoSci) by overnight incubation at 4° C. Non-bound protein was removed by three washes with tris-buffered saline (TBS)+0.1% Tween (TBST), and wells were then blocked for 1 hr at 4° C. with 5% bovine serum albumin in TBS.\nPlate-bound ATF5 was detected by 1-hr incubations at 4° C. of 1:1000 dilution rabbit-anti-ATF5 antibody (ab60126, Abcam) followed by 1:1000 goat-anti-rabbit IgG-HRP antibody (ab6721, Abcam), with three washes with TBST after each antibody incubation, and 50 μL TMB substrate. The reaction was stopped by addition of 25 μL 2.5M sulfuric acid, and absorbance was detected at 450 nm using a SpectraMax M3 plate reader (Molecular Devices)."}}, "note": "Where no end group is shown, it is not given here."}
{"molecule": "22-amino acid section of native ATF5 bZIP domain, LEGECQGLEARNRELKERAESV, and a 16-amino acid penetratin domain [precursor peptide]", "values": [{"measurement": "EC50", "setting": "[1]", "result": "17.4 ± 0.5", "unit": "µM"}]}
{"molecule": "recombinant ATF5", "values": [{"measurement": "Kd", "setting": "[2]", "result": 0.001, "unit": "µM"}]}
{"molecule": "RQIKIWFQNRRMKWKKLEGRAQGLRAELRELEERAEAV [“winner” peptide]", "values": [{"measurement": "increase in potency vs. the parent peptide", "setting": "[1]; HL-60 cytotoxicity EC50", "result": 3.2, "unit": "fold"}, {"measurement": "EC50", "setting": "[3]", "result": "5.5 ± 0.5", "unit": "µM"}]}
{"molecule": "B1", "values": [{"measurement": "Kd of ATF5 association with C/EBPβ", "setting": "C/EBPβ", "result": 0.001, "unit": "µM"}]}
